Measurements from article PMC6017062, “Probing the Inhibitor versus Chaperone Properties of sp^2-Iminosugars towards Human β-Glucocerebrosidase: A Picomolar Chaperone for Gaucher Disease” (Molecules : A Journal of Synthetic Chemistry and Natural …, 2018).
Substitutions are numbered along the chain they refer to. Read-outs that look alike come from different tables or passages of the source.

What was measured:
[1] = target: T1, human β-glucocerebrosidase (GCase) (Homo sapiens, UniProt P04062, R534H); test: Purified recombinant human GCase inhibition in vitro; format: biochemical; conditions: for Ki: purified recombinant enzyme (Cerezyme), 4-MU glucopyranoside substrate
T1 construct: purchased Genzyme (Genzyme Japan, Tokyo, Japan) / Sanofi Genzyme, Cambridge, MA, USA Cerezyme
T1 sequence (P04062 40-536 R534H): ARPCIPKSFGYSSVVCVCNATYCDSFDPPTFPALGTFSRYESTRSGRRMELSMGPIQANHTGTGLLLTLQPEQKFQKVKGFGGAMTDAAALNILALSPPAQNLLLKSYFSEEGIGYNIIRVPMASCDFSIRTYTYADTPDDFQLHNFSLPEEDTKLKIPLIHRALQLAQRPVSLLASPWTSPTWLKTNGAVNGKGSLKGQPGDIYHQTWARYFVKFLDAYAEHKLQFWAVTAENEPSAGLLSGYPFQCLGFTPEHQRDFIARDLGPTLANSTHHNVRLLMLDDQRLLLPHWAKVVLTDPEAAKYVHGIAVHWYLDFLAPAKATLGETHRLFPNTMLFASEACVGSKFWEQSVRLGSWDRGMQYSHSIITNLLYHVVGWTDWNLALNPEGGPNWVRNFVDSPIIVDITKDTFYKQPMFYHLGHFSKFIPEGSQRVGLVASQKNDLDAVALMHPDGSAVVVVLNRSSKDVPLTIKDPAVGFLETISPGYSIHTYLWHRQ
Procedure: Comparative assessment of the inhibition abilities of 1–4 against human lysosomal glycosidases in cell lysates (in vitro enzyme assay; see Experimental Section) confirmed the selectivity pattern previously observed for the commercial enzymes: whereas GCase was responsive to μM concentrations of the sp^2-iminosugars, the activity of lysosomal α-glucosidase, α- and β-galactosidases, α- and β-mannosidases, and hexosaminidase was not affected at concentrations of up to 200 μM. The corresponding Ki values were determined at pH 7 and 5 using purified recombinant human GCase and 4-methylumbelliferone (4-MU)-conjugated […] as the substrate (Table 2).
GCase activities were determined as above using purified human GCase, obtained from Genzyme (Genzyme Japan, Tokyo, Japan) in 0.1 M citrate buffer at pH 5 or pH 7 and 4-methylumbelliferone (4-MU)-conjugated β-D-glucopyranoside as the substrate. The reactions were terminated by adding 0.2 mL of 0.2 M glycine sodium hydroxide buffer (pH 10.7). The liberated 4-methylumbelliferone was measured in a black-well plate with a Perkin Elmer Luminescence Spectrometer, Waltham, MA, USA (excitation wavelength: 340 nm; emission: 460 nm).

[2] = target: T2, β-galactosidase (β-Galase) (Escherichia coli, UniProt P00722); test: Commercial glycosidase inhibition: β-galactosidase from E. coli (β-Galase); format: biochemical; conditions: mean ± SD, three determinations; competitive; n.i. = no inhibition detected at 1 mM
T2 construct: purchased
Text: (§1) We first evaluated the inhibitory properties of the new nonreducing mono- and bicyclic sp^2-iminosugars 4–15 against a panel of commercial glycosidases that included the α-glucosidases maltase (yeast maltase; α-Glcase1) and isomaltase (α-Glcase2) from Saccharomyces cerevisiae and amyloglucosidase (α-Glcase3) from Aspergillus niger, the β-glucosidases from almonds (β-Glcase1) and bovine liver (β-Glcase2), the α-galactosidase from green coffee beans (α-Galase), the β-galactosidase from Escherichia coli (β-Galase), and the α-mannosidase from Jack bean (α-Manase).
(§2) Inhibition constant (Ki) values were determined by spectrophotometrically measuring the residual hydrolytic activities of the glycosidases against the respective o- (for β-galactosidase from E. coli) or p-nitrophenyl α- or β-D-glycopyranoside (for other glycosidases) in the presence of the iminosugars. Each assay was performed in phosphate buffer or phosphate-citrate buffer (for α- or β-mannosidase and amyloglucosidase) at the optimal pH for the enzymes. The reactions were initiated by addition of the enzyme to a solution of the substrate in the absence or presence of various inhibitor concentrations. The mixture was incubated for 10–30 min at 37 °C or 55 °C (for amyloglucosidase) and the reaction was quenched by addition of 1 M Na2CO3. Reaction times were appropriate to obtain 10–20% conversion of the substrate in order to achieve linear rates. The absorbance of the resulting mixture was determined at 405 nm. Approximate value of Ki was determined from the slope of Dixon plots using a fixed concentration of substrate (around the Km value for the different glycosidases) and various concentrations of inhibitor. Full Ki determinations and enzyme inhibition mode were determined from the slope of Lineweaver–Burk plots and double reciprocal analysis.

[3] = tested on: β-glucosidases (almonds/bovine enzymes); conditions: 4 compared with its DIJ epimer 7
Text: as §1
Inhibition constant (Ki) values were determined by spectrophotometrically measuring the residual hydrolytic activities of the glycosidases against the respective o- (for β-galactosidase from E. coli) or p-nitrophenyl α- or β-D-glycopyranoside (for other glycosidases) in the presence of the iminosugars. […] The absorbance of the resulting mixture was determined at 405 nm. Approximate value of Ki was determined from the slope of Dixon plots using a fixed concentration of substrate (around the Km value for the different glycosidases) and various concentrations of inhibitor. Full Ki determinations and enzyme inhibition mode were determined from the slope of Lineweaver–Burk plots and double reciprocal analysis.

isomaltase (α-Glcase2) = target: T3, isomaltase (α-Glcase2) (Saccharomyces cerevisiae, UniProt P53051); test: Commercial glycosidase inhibition: isomaltase (α-Glcase2); format: biochemical; conditions: mean ± SD, three determinations; competitive; n.i. = no inhibition detected at 1 mM
T3 construct: purchased
Text: as §1, §2

GCase = target: T4, GCase (Homo sapiens, UniProt P04062); test: GCase activity in cultured healthy human fibroblasts; format: cell-based
T4 construct: endogenous in cells; host or cells: normal human skin fibroblasts
T4 sequence (P04062 40-536): T1 sequence (P04062 40-536 R534H) with H495R
Procedure: For that purpose, cells were cultured for 5 days in the absence and in the presence of various concentrations of the compounds, then lysed, and the enzyme activity was determined using 4-methylumbelliferyl β-D-glucopyranoside as substrate. Higher GCase activities in the lysate indicate that larger amounts of the protein are present and that it is functional.
Normal and Gaucher disease patients’ skin fibroblasts were cultured in Dulbecco modified Eagle’s medium (WAKO, Richmond, VA, USA) supplemented with 10% fetal bovine serum (Nichirei Biosci. Inc., Tokyo, Japan) at 37 °C in 5% CO2. For measurement of chaperone activities, fibroblasts were plated onto 35 mm dishes at 50,000 cells per dish. After 24 h incubation, the medium with the indicated concentrations of compound was applied and cells were cultured for 96 h. Then, the lysates in 0.1% Triton-X100/distilled H2O were collected from the cells and assayed for lysosomal GCase as described above. To measure the cytotoxic effect of the compounds, normal human fibroblasts were plated onto 35 mm dishes at 15,000 cells per dish and incubated overnight. Then, the medium was changed with or without compounds. After 24 h incubation, the supernatant of the cells was collected and measured by the lactate dehydrogenase assay (WAKO, Richmond, VA, USA). All the cell lines used were tested for mycoplasma contamination before conducting the chaperone and toxicity assays.

pKa determination = format: physicochemical

T2 sequence (P00722 2-1024 limits assumed): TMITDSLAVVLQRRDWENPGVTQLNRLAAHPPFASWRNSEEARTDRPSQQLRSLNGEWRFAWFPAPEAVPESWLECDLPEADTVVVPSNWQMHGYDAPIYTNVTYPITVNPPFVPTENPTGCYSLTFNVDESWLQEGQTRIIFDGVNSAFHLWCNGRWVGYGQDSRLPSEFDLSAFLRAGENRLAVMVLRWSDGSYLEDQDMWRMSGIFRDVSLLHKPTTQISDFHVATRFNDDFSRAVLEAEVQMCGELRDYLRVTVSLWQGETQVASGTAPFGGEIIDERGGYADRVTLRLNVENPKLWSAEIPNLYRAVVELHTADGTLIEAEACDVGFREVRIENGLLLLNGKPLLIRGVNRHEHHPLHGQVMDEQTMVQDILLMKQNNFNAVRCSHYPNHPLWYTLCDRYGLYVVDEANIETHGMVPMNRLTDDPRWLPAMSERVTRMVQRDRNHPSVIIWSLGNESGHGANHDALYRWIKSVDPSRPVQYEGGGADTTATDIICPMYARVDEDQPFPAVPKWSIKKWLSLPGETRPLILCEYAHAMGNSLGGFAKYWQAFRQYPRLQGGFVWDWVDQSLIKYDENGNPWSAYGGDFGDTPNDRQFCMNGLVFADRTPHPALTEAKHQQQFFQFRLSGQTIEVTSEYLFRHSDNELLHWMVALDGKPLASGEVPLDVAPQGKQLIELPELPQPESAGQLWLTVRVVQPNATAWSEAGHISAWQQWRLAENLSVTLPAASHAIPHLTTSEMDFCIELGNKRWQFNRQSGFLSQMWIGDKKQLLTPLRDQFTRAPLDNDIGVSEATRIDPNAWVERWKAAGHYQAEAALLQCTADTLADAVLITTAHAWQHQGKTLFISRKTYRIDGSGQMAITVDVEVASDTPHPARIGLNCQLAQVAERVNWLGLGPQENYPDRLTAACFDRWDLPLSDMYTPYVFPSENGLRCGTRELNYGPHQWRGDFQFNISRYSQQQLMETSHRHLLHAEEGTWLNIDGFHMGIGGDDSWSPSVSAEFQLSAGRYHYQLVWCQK
T3 sequence (P53051 whole entry): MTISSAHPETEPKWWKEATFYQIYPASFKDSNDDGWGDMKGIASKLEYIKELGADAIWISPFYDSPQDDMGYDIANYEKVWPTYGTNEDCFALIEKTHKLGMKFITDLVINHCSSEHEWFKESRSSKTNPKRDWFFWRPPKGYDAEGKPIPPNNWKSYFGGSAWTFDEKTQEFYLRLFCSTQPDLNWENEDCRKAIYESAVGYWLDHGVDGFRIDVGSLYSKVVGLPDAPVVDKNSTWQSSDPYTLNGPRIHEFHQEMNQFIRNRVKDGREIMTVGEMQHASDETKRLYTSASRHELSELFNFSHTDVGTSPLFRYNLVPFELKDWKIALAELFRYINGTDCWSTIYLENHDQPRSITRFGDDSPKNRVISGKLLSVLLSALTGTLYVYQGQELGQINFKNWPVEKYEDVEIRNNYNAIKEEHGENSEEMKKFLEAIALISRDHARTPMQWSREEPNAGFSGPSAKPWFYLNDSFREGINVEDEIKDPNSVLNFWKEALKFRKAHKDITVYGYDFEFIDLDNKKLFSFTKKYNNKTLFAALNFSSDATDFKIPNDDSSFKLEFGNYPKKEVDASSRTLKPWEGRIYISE

## CCCCCCCCN=C1SCC2C(O)C(O)C(O)CN12 (stereo not drawn) [Compound 4, 1-Deoxy-6-thio-5-N,6-S-(N′-octyliminomethylidene)nojirimycin]
[1]; 3 vs 1, 4 vs 2
  fold stronger GCase inhibition of nonreducing vs reducing partner: ~20 fold
[1]; pH 5, 2 vs 1, 4 vs 3
  fold enhancement of GCase inhibition potency upon replacement of O-6 by sulfur, pH 5: 107 fold
[1]; pH 5, read-out: Ki human GCase, pH 5
  Ki: 0.059 ± 0.0035 µM
[1]; pH 7, 2 vs 1, 4 vs 3
  fold enhancement of GCase inhibition potency upon replacement of O-6 by sulfur, pH 7: 130 fold
[1]; pH 7, read-out: Ki human GCase, pH 7
  Ki: 0.013 ± 0.0011 µM
[2]
  Ki β-Galase: n.i.
[3]
  fold stronger inhibition potency towards the β-glucosidases: 100 fold
Isomaltase (α-Glcase2)
  Ki α-Glcase2: n.i.
GCase
  GCase activity in lysates of healthy human fibroblasts at higher concentrations: significantly inhibited
GCase; 20 μM, 5 days culture
  GCase activity in lysates of healthy human fibroblasts at 20 μM: virtually full inhibition
pKa determination
  pKa: 8.3
